Assays:
[1] = biological target: Protein farnesyltransferase (Homo sapiens, UniProt P49354+P49356); assay: Inhibition of FTase isolated from human Burkitt's lymphoma cells assessed as decrease in transfer of [3H]farnesyl from [3H]farnesyl PPi to H-Ras-CVLS
[2] = biological target: c-Jun N-terminal kinase, JNK (Homo sapiens, UniProt P45983+P53779+P45984); assay: Inhibition of JNK (unknown origin); assay type: protein assay
[3] = biological target: Histone acetyltransferase p300 (Homo sapiens, UniProt Q09472); assay: Inhibition of full length His6-tagged recombinant p300 (unknown origin) expressed in baculovirus infected Sf21 cells using human histone as substrate preincubated for 10 mins followed by [3H]acetyl-CoA addition measured after 10 mins by liquid scintillation counting method
Chain of Histone acetyltransferase p300 (Q09472 whole entry): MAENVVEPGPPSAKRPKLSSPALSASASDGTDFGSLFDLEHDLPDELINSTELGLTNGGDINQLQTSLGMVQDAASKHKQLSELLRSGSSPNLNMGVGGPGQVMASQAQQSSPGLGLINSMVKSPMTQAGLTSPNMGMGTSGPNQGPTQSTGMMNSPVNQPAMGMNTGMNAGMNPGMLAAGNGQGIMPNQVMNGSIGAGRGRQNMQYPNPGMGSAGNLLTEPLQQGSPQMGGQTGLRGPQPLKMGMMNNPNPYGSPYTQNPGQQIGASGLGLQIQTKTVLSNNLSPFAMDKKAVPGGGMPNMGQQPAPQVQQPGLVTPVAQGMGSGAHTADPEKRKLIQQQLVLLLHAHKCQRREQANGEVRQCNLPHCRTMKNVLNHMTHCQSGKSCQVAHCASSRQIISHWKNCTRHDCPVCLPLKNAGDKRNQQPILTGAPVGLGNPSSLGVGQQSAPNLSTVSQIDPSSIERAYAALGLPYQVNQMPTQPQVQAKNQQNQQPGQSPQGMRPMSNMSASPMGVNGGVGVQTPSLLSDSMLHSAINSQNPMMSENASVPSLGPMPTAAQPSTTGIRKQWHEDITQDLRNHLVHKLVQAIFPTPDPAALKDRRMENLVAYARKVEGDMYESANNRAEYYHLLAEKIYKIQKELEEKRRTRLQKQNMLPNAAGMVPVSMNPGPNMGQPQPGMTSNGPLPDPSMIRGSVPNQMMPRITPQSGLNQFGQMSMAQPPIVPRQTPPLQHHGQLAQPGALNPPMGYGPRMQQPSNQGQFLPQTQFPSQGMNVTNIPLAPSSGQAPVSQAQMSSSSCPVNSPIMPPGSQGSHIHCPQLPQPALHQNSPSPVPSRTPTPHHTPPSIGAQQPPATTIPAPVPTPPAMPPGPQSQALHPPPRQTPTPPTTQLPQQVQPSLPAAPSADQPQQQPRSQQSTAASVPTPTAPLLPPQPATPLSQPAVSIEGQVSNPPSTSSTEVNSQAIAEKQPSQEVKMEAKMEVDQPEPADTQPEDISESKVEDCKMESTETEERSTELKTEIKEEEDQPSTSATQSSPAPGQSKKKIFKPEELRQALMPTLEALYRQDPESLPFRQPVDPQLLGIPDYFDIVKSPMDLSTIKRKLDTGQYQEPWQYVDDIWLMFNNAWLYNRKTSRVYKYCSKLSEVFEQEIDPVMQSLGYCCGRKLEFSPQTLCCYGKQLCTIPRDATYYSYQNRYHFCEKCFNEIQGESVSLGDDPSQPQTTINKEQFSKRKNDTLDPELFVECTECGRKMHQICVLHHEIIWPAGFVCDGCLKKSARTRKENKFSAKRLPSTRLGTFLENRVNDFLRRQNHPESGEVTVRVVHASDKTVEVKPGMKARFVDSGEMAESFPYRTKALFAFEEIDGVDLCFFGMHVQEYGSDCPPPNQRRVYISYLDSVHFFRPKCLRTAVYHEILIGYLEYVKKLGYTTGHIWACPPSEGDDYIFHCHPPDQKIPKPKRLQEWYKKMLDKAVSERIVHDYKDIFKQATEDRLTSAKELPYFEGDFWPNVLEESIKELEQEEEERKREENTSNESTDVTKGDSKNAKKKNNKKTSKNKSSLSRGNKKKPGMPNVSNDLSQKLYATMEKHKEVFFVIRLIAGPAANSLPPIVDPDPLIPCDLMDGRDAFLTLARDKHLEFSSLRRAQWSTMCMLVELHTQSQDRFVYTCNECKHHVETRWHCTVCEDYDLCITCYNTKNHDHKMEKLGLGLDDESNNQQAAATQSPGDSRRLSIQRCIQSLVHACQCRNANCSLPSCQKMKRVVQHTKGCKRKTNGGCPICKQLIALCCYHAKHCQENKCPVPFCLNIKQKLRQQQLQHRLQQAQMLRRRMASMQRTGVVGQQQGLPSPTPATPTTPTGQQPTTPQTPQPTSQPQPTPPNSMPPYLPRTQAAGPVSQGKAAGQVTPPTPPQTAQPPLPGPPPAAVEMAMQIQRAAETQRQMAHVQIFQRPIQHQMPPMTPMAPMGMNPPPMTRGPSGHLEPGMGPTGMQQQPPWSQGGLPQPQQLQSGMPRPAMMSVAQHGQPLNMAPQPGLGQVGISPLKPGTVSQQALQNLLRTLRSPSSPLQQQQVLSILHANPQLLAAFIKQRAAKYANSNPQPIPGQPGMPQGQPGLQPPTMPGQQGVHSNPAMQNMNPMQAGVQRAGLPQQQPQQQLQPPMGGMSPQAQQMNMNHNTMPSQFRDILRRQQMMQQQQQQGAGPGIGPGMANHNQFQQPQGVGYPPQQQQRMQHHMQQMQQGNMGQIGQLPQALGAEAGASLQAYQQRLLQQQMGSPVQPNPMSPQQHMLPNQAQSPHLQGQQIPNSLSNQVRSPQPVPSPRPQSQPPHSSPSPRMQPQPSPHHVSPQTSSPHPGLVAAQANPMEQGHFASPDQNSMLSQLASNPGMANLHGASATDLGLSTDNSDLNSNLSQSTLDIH

[4] = Inhibition of SCF (SKP2) complex (unknown origin) expressed in baculovirus infected Sf9 cells assessed as decrease in phospho-p27 Kip1 ubiquitination preincubated for 10 to 45 mins followed by phospho-p27 Kip1 addition measured after 1 to 3 hrs by immunoblot method; design: species or system Homo sapiens
[5] = Inhibition of UAE (unknown origin) assessed as decrease in formation of E2-UBL thioester reaction product; design: species or system Homo sapiens
[6] = biological target: T1, Ubiquitin-like modifier-activating enzyme 6 (Homo sapiens, UniProt A0AVT1); assay: Inhibition of UBA6 (unknown origin) assessed as decrease in formation of E2-UBL thioester reaction product
T1 sequence (A0AVT1 whole entry): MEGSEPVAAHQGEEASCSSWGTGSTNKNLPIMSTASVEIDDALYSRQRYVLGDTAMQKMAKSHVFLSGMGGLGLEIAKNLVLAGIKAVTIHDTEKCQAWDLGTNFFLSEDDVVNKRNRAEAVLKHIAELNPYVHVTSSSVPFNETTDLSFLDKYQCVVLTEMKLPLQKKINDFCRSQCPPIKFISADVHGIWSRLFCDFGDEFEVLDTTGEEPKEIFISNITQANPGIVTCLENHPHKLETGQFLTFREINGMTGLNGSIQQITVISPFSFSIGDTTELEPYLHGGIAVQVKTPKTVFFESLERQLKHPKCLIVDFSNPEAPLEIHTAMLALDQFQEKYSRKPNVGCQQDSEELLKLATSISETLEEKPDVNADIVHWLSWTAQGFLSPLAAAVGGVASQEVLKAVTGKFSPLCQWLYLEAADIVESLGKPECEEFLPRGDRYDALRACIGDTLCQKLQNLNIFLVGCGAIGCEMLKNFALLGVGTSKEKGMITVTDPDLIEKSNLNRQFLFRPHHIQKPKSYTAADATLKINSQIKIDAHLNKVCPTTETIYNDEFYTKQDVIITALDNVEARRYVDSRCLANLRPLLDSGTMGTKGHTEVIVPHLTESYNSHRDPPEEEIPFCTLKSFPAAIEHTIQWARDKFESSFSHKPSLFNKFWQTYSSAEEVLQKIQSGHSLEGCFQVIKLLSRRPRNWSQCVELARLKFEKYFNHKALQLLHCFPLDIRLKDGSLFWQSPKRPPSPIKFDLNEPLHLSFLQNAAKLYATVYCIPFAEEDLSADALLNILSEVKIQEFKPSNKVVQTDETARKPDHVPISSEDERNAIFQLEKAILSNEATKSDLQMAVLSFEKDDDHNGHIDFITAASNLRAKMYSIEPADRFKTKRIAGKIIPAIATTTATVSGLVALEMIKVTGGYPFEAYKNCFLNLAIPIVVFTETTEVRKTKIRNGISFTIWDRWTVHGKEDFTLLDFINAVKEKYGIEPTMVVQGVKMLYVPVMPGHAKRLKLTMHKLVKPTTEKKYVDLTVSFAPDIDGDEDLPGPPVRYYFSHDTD

SUMO-activating enzyme = SUMO-activating enzyme (Homo sapiens, UniProt Q9UBT2); assay: Inhibition of SAE (unknown origin) assessed as decrease in formation of E2-UBL thioester reaction product; assay type: protein-complex assay
Chain of SUMO-activating enzyme (Q9UBE0 whole entry): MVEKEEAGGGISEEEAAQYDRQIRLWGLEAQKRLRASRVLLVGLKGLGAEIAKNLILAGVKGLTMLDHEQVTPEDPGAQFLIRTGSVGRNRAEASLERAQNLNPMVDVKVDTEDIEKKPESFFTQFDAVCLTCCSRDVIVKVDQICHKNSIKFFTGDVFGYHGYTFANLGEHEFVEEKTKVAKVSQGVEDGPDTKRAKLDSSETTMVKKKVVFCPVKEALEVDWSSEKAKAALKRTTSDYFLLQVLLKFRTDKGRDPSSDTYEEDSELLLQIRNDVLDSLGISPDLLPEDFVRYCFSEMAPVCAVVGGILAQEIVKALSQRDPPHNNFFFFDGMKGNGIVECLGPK
Chain of SUMO-activating enzyme (Q9UBT2 whole entry): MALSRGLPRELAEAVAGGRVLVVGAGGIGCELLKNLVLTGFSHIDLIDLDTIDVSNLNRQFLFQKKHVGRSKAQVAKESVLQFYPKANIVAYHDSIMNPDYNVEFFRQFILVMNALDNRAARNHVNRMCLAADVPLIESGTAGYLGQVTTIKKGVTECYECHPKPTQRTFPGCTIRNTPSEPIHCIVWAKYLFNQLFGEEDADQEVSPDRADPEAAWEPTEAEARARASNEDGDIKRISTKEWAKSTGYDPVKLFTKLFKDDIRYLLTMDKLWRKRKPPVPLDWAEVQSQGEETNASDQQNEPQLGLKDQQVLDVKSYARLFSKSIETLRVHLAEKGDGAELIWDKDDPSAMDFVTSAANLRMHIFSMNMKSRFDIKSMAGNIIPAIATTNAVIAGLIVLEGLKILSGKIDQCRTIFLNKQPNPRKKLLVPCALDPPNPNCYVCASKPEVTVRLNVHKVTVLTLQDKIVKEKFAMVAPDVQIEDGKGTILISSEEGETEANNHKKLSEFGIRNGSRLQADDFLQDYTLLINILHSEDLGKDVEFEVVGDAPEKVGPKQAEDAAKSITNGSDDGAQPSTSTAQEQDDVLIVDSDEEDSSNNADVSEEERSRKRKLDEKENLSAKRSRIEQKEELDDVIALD

[7] = biological target: T2, Ubiquitin-like modifier-activating enzyme ATG7 (Homo sapiens, UniProt O95352); assay: Inhibition of ATG7 (unknown origin) assessed as decrease in formation of E2-UBL thioester reaction product
T2 sequence (O95352 whole entry): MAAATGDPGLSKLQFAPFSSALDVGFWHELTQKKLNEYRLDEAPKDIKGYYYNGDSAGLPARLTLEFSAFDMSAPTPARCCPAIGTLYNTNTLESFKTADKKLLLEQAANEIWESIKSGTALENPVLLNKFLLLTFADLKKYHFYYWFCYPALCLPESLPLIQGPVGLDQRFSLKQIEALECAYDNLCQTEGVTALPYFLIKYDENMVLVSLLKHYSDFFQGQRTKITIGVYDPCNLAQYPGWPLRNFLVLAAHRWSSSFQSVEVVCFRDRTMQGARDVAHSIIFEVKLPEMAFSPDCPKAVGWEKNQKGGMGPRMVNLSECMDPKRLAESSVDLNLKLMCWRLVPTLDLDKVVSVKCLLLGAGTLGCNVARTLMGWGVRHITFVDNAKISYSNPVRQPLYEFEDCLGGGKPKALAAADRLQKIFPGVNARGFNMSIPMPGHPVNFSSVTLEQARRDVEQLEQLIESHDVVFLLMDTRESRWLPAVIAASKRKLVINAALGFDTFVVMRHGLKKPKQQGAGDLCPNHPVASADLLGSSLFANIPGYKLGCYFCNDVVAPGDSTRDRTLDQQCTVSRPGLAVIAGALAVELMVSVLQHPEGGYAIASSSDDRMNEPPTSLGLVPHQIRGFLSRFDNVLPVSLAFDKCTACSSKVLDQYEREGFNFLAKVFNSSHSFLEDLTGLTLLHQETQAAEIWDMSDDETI

[8] = biological target: Geranylgeranyl transferase type I (Homo sapiens, UniProt P49354+P53609); assay: Inhibition of GGTase1 isolated from Kirsten virus-transformed human osteosarcoma cells using biotin-YRASNRSCAIL peptide as substrate after 120 mins in presence of [ 1-[ 3 H](n)]geranylgeranylpyrophosphate by scintillation proximity assay
[9] = biological target: Serine/threonine-protein kinase B-raf (Homo sapiens, UniProt P15056); assay: Inhibition of BRAF (unknown origin) using MEK1 K97R mutant as substrate preincubated for 60 to 120 mins followed by substrate addition measured after 2 hrs by TR-FRET assay
Chain of Serine/threonine-protein kinase B-raf (P15056 whole entry): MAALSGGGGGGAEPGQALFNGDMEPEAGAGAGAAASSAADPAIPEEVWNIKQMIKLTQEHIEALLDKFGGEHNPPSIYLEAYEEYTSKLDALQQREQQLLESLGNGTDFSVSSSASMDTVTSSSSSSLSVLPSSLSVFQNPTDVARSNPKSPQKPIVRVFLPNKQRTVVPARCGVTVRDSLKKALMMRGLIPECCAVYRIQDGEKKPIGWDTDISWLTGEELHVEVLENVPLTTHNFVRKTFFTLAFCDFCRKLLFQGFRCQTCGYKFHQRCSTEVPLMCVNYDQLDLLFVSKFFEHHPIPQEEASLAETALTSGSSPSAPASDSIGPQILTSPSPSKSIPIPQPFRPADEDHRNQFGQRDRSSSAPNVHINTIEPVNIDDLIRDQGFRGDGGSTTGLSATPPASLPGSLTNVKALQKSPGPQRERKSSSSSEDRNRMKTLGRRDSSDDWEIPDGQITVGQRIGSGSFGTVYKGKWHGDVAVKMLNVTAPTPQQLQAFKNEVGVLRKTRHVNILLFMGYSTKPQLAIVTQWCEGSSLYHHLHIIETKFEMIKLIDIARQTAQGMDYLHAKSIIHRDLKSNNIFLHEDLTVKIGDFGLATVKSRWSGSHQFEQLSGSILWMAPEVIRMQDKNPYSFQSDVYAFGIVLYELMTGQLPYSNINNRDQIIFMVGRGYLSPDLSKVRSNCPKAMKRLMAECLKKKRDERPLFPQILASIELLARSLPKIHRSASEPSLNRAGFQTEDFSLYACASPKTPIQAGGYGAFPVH

Sharpin/RBCK1/RNF31 = biological target: T3, Sharpin/RBCK1/RNF31 (Homo sapiens, UniProt Q96EP0+Q9BYM8+Q9H0F6); assay: Inhibition of petit-LUBAC (unknown origin)-mediated ubiquitylation expressed in Escherichia coli BL21 after 2 hrs in presence of E1, UbcH5c, E3 and ubiquitin
T3 sequence (Q9H0F6 whole entry): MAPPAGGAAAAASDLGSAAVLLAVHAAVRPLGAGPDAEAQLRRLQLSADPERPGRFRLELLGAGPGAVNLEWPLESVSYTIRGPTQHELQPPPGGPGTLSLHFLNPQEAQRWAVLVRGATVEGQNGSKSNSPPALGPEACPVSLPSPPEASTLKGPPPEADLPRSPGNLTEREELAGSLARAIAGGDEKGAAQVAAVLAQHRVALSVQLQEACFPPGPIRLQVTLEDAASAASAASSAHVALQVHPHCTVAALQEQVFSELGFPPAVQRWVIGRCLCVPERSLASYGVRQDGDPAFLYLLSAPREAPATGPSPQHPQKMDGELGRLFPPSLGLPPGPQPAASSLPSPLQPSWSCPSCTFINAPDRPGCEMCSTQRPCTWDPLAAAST
T3 sequence (Q9BYM8 whole entry): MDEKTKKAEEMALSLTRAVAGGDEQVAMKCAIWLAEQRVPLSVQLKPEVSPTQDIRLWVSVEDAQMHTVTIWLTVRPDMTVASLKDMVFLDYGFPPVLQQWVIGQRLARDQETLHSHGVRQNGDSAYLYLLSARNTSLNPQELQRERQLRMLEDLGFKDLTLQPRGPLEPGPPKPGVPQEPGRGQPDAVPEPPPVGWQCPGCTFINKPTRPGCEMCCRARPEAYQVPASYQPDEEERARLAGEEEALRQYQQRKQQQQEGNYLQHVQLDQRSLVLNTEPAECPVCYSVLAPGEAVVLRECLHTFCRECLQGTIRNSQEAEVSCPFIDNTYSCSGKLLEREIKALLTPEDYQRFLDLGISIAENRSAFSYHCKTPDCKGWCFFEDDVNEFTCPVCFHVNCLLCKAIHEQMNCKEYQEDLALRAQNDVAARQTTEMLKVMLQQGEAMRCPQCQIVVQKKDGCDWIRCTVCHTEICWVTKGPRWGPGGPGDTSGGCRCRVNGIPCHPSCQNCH
T3 sequence (Q96EP0 whole entry): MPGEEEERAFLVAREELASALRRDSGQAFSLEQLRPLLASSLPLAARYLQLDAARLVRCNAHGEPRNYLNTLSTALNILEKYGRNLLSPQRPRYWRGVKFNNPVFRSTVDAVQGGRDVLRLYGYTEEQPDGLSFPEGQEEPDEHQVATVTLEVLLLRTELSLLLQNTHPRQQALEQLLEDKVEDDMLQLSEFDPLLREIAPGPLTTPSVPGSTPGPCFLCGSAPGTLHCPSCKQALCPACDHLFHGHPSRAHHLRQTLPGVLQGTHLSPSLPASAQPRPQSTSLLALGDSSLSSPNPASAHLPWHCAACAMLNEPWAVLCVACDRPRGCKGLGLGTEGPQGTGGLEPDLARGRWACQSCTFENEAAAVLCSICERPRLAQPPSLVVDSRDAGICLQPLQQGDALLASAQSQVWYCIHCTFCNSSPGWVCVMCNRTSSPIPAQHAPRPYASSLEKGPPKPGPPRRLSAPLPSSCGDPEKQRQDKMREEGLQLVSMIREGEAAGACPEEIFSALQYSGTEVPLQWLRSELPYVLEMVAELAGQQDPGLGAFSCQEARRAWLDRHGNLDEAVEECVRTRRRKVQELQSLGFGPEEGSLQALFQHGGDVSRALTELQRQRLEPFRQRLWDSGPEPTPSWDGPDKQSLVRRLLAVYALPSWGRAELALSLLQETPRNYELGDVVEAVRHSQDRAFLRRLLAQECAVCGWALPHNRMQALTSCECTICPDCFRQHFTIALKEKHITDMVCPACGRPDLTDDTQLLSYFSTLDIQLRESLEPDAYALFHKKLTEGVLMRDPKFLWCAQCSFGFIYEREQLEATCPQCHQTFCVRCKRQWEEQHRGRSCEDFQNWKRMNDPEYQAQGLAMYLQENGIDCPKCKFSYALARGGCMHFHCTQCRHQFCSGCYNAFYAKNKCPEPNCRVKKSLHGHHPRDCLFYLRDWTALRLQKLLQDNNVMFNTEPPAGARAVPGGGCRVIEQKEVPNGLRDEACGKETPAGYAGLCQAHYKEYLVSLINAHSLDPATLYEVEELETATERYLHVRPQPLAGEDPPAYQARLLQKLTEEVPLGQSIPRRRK

Protein O-GlcNAcase = biological target: T4, Protein O-GlcNAcase (Rattus norvegicus, UniProt Q8VIJ5); assay: Inhibition of O-GlcNAcase in rat PC12 cells assessed as induction of OGlcNAcylation after 24 hrs by Western blot method; assay type: cell-based
T4 sequence (Q8VIJ5 whole entry): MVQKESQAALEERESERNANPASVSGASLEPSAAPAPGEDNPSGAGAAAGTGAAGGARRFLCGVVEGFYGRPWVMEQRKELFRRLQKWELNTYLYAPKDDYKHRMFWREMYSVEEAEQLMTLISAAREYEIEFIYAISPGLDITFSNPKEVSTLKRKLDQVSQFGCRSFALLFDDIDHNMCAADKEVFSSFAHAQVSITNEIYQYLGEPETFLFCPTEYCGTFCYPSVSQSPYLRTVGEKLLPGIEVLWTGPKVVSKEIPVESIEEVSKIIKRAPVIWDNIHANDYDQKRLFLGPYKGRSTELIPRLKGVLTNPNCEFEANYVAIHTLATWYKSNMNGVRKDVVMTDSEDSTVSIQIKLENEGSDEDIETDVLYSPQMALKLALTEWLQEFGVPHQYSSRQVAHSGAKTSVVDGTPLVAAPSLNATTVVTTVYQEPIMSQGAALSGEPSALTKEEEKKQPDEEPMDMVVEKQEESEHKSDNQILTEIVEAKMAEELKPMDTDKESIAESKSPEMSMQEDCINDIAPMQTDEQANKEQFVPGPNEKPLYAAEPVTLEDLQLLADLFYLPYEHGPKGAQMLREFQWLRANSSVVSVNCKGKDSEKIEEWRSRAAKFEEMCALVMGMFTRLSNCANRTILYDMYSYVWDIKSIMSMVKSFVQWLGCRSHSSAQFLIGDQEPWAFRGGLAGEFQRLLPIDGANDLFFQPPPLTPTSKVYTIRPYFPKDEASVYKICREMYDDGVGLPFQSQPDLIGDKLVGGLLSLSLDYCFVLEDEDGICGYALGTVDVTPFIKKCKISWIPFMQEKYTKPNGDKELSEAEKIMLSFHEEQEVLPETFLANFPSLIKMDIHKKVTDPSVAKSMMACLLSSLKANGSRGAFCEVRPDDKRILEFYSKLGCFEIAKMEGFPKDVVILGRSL

Structure (SMILES): CSCC[C@@H](NC(=O)c1ccc(CNCc2c[nH]cn2)cc1-c1ccccc1C)C(=O)O
- IC50 [1]: 1.4 nM

Structure (SMILES): Nc1nnc(Sc2ncc([N+](=O)[O-])s2)s1
- IC50 [2]: 700 nM

Structure (SMILES): C=C(C)[C@H](CC=C(C)C)C[C@]12C[C@H](CC=C(C)C)C(C)(C)[C@](CC=C(C)C)(C(=O)C(C(=O)c3ccc(O)c(O)c3)=C1O)C2=O
- IC50 [3]: 7000 nM

Structure (SMILES): COCC(=O)N[C@@H](Cc1ccc(-c2cc(Cl)cc(Cl)c2)cc1)[C@H](O)[C@@H](O)C(=O)O
- IC50 [4]: 1700 nM

Structure (SMILES): COC(=O)[C@H](CCSC)NC(=O)c1ccc(NC[C@@H](N)CS)cc1-c1ccccc1
- IC50 [1]: 0.5 nM

Structure (SMILES): NS(=O)(=O)OC[C@@H]1C[C@@H](n2ccc3c(N[C@H]4CCc5ccccc54)ncnc32)C[C@@H]1O [PEVONEDISTAT]
- IC50 [5]: > 1000 nM
- IC50 [6]: > 1000 nM
- IC50 (SUMO-activating enzyme): > 1000 nM
- IC50 [7]: > 1000 nM

Structure (SMILES): Cn1cncc1[C@@](N)(c1ccc(Cl)cc1)c1ccc2c(c1)c(-c1cccc(Cl)c1)cc(=O)n2C [TIPIFARNIB]
- IC50 [8]: > 1000 nM

Structure (SMILES): O=C1CCc2c(Oc3ccc4c(c3)[C@@H]3[C@H](O4)[C@H]3c3nc4ccc(C(F)(F)F)cc4[nH]3)ccnc2N1 [LIFIRAFENIB]
- IC50 [9]: 23 nM

Structure (SMILES): CN1C(=O)[C@]23CC4=CC=C[C@H](O)[C@H]4N2C(=O)[C@@]1(CO)SS3 [GLIOTOXIN]
- IC50 (Sharpin/RBCK1/RNF31): 510 nM

Structure (SMILES): CCNC1=N[C@@H]2[C@@H](O)[C@H](O)[C@@H](CO)O[C@@H]2S1
- EC50 (Protein O-GlcNAcase): 30 nM

From ChEMBL document CHEMBL4184146, “Interrogating the Roles of Post-Translational Modifications of Non-Histone Proteins” (J Med Chem, 2018)
